Results on five compounds are retold here after patent US8592396B2, “Glucokinase activators and methods of using same” (Bristol-Myers Squibb Company, priority 2010, dated 2013).

For assay [1], the target named is T1, Human Glucokinase (Homo sapiens, UniProt P35557).
T1 construct: Full-length human hepatic GK (untagged) was expressed; made in house; host or cells: E. coli BL21 STAR (DE3)pLysS
T1 sequence (P35557 1-466 isoform P35557-2): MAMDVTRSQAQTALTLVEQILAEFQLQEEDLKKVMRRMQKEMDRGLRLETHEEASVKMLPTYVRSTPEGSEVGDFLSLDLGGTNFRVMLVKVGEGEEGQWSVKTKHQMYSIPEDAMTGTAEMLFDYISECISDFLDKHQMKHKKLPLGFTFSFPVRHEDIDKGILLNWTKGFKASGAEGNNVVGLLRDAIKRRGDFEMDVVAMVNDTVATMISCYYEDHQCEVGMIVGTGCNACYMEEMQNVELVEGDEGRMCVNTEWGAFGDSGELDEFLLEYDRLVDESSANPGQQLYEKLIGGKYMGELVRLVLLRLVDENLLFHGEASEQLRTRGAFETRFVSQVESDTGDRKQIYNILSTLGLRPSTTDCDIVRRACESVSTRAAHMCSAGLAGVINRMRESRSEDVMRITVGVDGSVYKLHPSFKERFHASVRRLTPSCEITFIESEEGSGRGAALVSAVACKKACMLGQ
The assay is described as follows: Glucokinase tandem enzymatic assay. The format is biochemical. The settings on record: 12 mM glucose; for Emax: expressed as a % of basal activation, read-out: Maximal activation (%) Human Glucokinase @ 12 mM Glucose. The method, then:
Glucokinase Tandem Enzymatic Assay
Enzymatic activity of human glucokinase (GK) was measured by incubating GK, ATP, and glucose for discrete time periods followed by quenching with EDTA (ethylenediamine tetra-acetic acid). Relative amounts of product glucose-6-phosphate (G6P) were measured by then running a detection assay using G6P dehydrogenase and measuring the conversion of ThioNAD (thio-nicotinamide adenine dinucleotide) to ThioNADH (thio-dihydronicotinamide adenine dinucleotide) at a wavelength of 405 nm. This “uncoupled” enzymatic reaction is denoted as the GK “tandem” assay. Activation of GK by compounds can be assessed using this assay. The GK tandem assay protocol described below was followed using a range of activator compound concentrations from 0 to 100 μM at 5 and 12 mM of glucose. Human full-length glucokinase (GK, 15 nM) was incubated with 5 or 12 mM glucose in a 384 well black microtiter plate with a clear bottom. To initiate the GK reaction, magnesium-ATP (3 mM final concentration) was added to GK in buffer (final buffer conditions of 25 mM HEPES buffer, pH 7.1, containing 1 mM dithiothreitol and 5% DMSO). The total reaction volume was 20 μL. The reaction was allowed to proceed for ten minutes and was then quenched with 5 μL EDTA; 45 mM final). The components of the detection reaction, ThioNAD and G6PDH (glucose-6-phosphate dehydrogenase) (final concentrations of 650 μM and 3.33 Units, respectively), were then added together in a volume of 25 μL, (to give a total volume of 50 μL). Absorbance measurements were made at 405 nm on a SPECTRAMAX® Plus 384 absorbance plate reader (Molecular Devices). Absorbance was read, background glucose-6-phosphate levels were subtracted, after which activation was calculated as a percentage of control activity. Control activity was determined using GK in the presence of vehicle (DMSO), with background glucose-6-phosphate subtracted. Background glucose-6-phosphate was determined by pre-quenching GK with EDTA prior to reaction initiation with ATP.
Expression and Purification of Human GK
Full-length human hepatic GK (untagged) was expressed in BL21 STAR (DE3)pLysS cells (Invitrogen) at 25° C. as described by Mookhtiar et al. (1). The protein was purified essentially as described by Lange (2) with a slight modification. Briefly, cell pellets were lysed via three rounds of freezing and thawing, centrifuged at 15000 g for clarification, and precipitated with 40-65% (NH4)2SO4. The resulting pellet was resuspended in buffer, dialyzed, and applied directly to a Q-SEPHAROSE® (Sigma) column followed by elution with a linear 100-600 mM KCl gradient. GK containing fractions were pooled, dialyzed overnight vs. 25 mM Hepes pH 7.2/1 mM MgCl2/1 mM EDTA/0.1 M KCl/1 mM DTT, then dialyzed again with same buffer with 10% glycerol added.

Assay [2] relates to male DIO (diet-induced obese) C57BL/6J mice. Put plainly: Oral glucose tolerance test (OGTT) in DIO mice. The format is in vivo. Particulars: 30 μmol/kg given orally 60 min before 2 g/kg oral glucose; DIO C57BL/6J mice; ΔAUC 0-120 min. The method, then: In Vivo Studies: Oral Glucose Tolerance Test (OGTT)
Oral glucose tolerance tests were carried out on male DIO (diet-induced obese) C57BL/6J mice fed a high fat diet (60% kcal from fat) for 26 weeks prior to experimentation. Mice were fasted overnight before use for experiments. A test compound or vehicle (either: 1) 40% PEG 400+10% Cremophore+50% water or 2) 10% dimethyl acetamide+10% ethanol+10% Cremophore+70% water) was given orally 60 min before oral administration of a glucose solution at a dose of 2 g/kg body weight (oral glucose tolerance test; OGTT). Blood glucose levels were measured from tail-bled samples taken at different time points before and after administration of glucose (time course of 2 hours). A time curve of the blood glucose was generated and the change from baseline area-under-the curve (ΔAUC) from 0-120 min was calculated (the time glucose administration being time zero).

As to `CCOP(C)(=O)Cn1ccc(Nc2ncnc3ccc(OC(C)C)cc23)n1` (racemic) [Example 3], in assay [1], the EC50 (in general, the concentration giving half of the maximal effect) was determined as 810 nM and the Emax came to 134%.

In the case of `CCOP(C)(=O)Cc1csc(Nc2ncnc3ccc(OC(CF)CF)cc23)n1` (racemic) [Example 6], the midpoint of the response in assay [1], the EC50, lay at 390 nM. This counts as sub-micromolar.

For the compound `CCOP(=O)(Cc1csc(Nc2ncnc3ccc(OC(CF)CF)cc23)n1)OCC` [Example 1], in assay [1], the EC50 came to 91 nM and the Emax turned out to be 145%. Further, the “Reduction in Glucose AUC at 30 μmol/kg dose” value in assay [2] was 93%.

With `CCOP(=O)(Cc1csc(Nc2ncnc3ccc(OC(C)C)cc23)n1)OCC` [Example 2], in assay [1], the half-maximal effective concentration (EC50) is 136 nM.

As to `CCOP(=O)(Cc1csc(Nc2ncnc3ccc(O[C@@H](C)COC)cc23)n1)OCC` [Example 4], the Emax in assay [1] is 180%.
